The test system of series [1] is Mus musculus. Put plainly: Anti-atherosclerotic activity in high fat diet-induced C57BL/6 mouse model of hypercholesterolemia assessed as increase in ABCG5 mRNA expression in ileum at 10 to 40 mg/kg, po administered for 12 weeks by RT-qPCR analysis. It counts as functional, organism-based. (In qPCR the cycle at which signal appears reflects the starting amount.)
The subject of series [2] is Mus musculus. Description: Anti-atherosclerotic activity in high fat diet-induced C57BL/6 mouse model of hypercholesterolemia assessed as increase in ABCG8 mRNA expression in liver at 10 to 40 mg/kg, po administered for 12 weeks by RT-qPCR analysis. The class given is functional, organism-based.
For a further series, the system named is HEK-293T. Description: Cytotoxicity against HEK293T cells assessed as reduction in cell viability at […] incubated for 24 hrs by MTT assay. It counts as cell-based. The following applies: human. In general terms: Tetrazolium assays rely on reduction of a dye to a coloured formazan, in cell work by metabolically active cells.
Series [3] relates to RAW264.7. Description: Effect on LXR mRNA expression in mouse RAW264.7 cells at 10 uM incubated for 48 hrs by qPCR analysis. It counts as cell-based. The following applies: raw264.7, 48 h.
In series [4] the test system is RAW264.7. Description: Agonist activity at LXR in mouse RAW264.7 cells assessed as increase in ABCA1 mRNA expression at 10 uM incubated for 48 hrs by qPCR analysis. The class given is cell-based.
Series [5] has as its system RAW264.7. Put plainly: Cytotoxicity against mouse RAW264.7 cells assessed as reduction in cell viability at 2 to 50 µM incubated for 24 hrs by MTT assay. The class given is cell-based. The following applies: raw264.7, 24 h.
The next series has as its system PBMC. Description: Effect on LXR mRNA expression in C57BL/6 mouse PBMC at 10 uM incubated for 48 hrs by qPCR analysis. It counts as cell-based.
The nature of series [6]: Agonist activity at LXR in C57BL/6 mouse PBMC assessed as increase in sREBP-1c mRNA expression at 10 uM incubated for 48 hrs by qPCR analysis.
For series [7], the system named is HepG2. Put plainly: Effect on TG accumulation in human HepG2 cells at 10 uM incubated for 24 hrs. The class given is ADME, cell-based. The following applies: hepg2, 24 h.
The test system of series [8] is RAW264.7. Put plainly: Anti-atherosclerotic activity in mouse RAW264.7 cells assessed as inhibition of ox-LDL induced lipid accumulation at 10 uM incubated for 48 hrs by ORO staining based microscopic analysis. The class given is functional, cell-based.
For series [9], the system named is Mus musculus. Put plainly: Anti-atherosclerotic activity in high fat diet-induced C57BL/6 mouse model of hypercholesterolemia assessed as reduction in hepatic total cholesterol level at 10 to 40 mg/kg, po administered for 12 weeks. The class given is functional, organism-based.
Series [10] has as its system Mus musculus. Put plainly: Induction of hepatic steatosis in C57BL/6 mouse assessed as effect on serum LDL-C at 50 mg/kg/day, ig administered for 7 days. It counts as organism-based. The following applies: in vivo, po, 168 h.
In series [11] the target is T1, Oxysterols receptor LXR-alpha (Homo sapiens) (UniProt Q13133).
T1 sequence (whole entry): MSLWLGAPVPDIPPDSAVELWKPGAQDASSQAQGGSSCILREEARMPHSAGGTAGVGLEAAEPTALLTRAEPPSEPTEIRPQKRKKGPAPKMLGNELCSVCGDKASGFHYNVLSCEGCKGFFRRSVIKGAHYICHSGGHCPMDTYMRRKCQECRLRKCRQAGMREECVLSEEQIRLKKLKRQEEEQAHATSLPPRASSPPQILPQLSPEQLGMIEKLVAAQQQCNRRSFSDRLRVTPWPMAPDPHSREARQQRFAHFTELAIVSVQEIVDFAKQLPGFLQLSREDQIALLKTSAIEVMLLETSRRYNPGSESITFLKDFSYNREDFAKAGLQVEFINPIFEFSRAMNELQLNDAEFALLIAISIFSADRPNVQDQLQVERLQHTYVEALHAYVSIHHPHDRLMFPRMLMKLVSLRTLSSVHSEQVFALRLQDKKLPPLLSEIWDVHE
Put plainly: Agonist activity at human LXRalpha transfected in HEK293T cells at 10 uM incubated for 20 hrs in presence of LXR antagonist SR9243 by luciferase reporter gene assay relative to control. The class given is cell-based. For orientation: A reporter such as luciferase makes a cellular process visible.

The test system of series [12] is Mus musculus. Put plainly: Anti-atherosclerotic activity in high fat diet-induced C57BL/6 mouse model of hypercholesterolemia assessed as reduction in hepatic triglyceride level at 10 to 40 mg/kg, po administered for 12 weeks. The class given is functional, organism-based.
Series [13] relates to Mus musculus. Description: Anti-atherosclerotic activity in high fat diet-induced C57BL/6 mouse model of hypercholesterolemia assessed as reduction in liver fat administered orally for 12 weeks by ORO staining based microscopic analysis. The class given is functional, organism-based.
In series [14] the test system is Mus musculus. Description: Anti-atherosclerotic activity in high fat diet-induced C57BL/6 mouse model of hypercholesterolemia assessed as increase in ABCG5 mRNA expression in liver at 10 to 40 mg/kg, po administered for 12 weeks by RT-qPCR analysis. It counts as functional, organism-based.
Series [15] concerns HepG2. Put plainly: Cytotoxicity against human HepG2 cells assessed as reduction in cell viability at 2 to 50 uM incubated for 24 hrs by MTT assay. It counts as cell-based. Conditions: hepg2, 24 h.
For series [16], the system named is Mus musculus. Put plainly: Anti-atherosclerotic activity in high fat diet-induced C57BL/6 mouse model of hypercholesterolemia assessed as increase in ABCA1 mRNA expression in small intestine at 10 to 40 mg/kg, po administered for 12 weeks by RT-qPCR analysis. It counts as functional, organism-based.
In series [17] the test system is 3T3-L1. Description: Anti-adipogenic activity in mouse 3T3L1 preadipocytes assessed as decrease in triglyceride accumulation. The class given is functional, cell-based.
For series [18], the target named is T2, Oxysterols receptor LXR-beta (Rattus norvegicus) (UniProt Q62755).
T2 sequence (whole entry): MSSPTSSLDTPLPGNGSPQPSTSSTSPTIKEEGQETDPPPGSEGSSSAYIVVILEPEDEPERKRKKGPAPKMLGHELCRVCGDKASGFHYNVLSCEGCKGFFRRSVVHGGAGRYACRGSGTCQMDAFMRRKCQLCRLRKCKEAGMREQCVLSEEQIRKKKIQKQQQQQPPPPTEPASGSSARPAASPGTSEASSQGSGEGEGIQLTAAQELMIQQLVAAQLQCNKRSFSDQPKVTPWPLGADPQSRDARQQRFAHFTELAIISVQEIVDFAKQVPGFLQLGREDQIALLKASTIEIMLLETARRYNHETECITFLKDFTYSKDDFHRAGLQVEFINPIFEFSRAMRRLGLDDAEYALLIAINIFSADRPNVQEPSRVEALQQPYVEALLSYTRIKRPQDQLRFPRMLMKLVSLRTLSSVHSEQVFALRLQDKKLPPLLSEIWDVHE
Description: Agonist activity at rat LXRbeta transfected in HEK293T cells at 10 uM incubated for 20 hrs by luciferase reporter gene assay relative to control. It counts as cell-based.

Series [19] relates to 3T3-L1. Description: Anti-adipogenic activity in mouse 3T3L1 preadipocytes assessed as decrease in lipid accumulation by Oil Red O staining-based microscopic analysis. It counts as functional, cell-based.
Series [20] relates to Mus musculus. Put plainly: Anti-atherosclerotic activity in high fat diet-induced C57BL/6 mouse model of hypercholesterolemia assessed as increase in ABCG1 mRNA expression in small intestine at 10 to 40 mg/kg, po administered for 12 weeks by RT-qPCR analysis. The class given is functional, organism-based.
For series [21], the target named is Liver X receptor (Homo sapiens) (UniProt Q13133+P55055). Description: Agonist activity at LXR in human HepG2 cells assessed as increase in ABCA1 mRNA expression at 10 uM incubated for 24 hrs by qPCR analysis. The class given is cell-based.
Chain of Liver X receptor (Homo sapiens) (P55055 whole entry, looked up, one chain of several): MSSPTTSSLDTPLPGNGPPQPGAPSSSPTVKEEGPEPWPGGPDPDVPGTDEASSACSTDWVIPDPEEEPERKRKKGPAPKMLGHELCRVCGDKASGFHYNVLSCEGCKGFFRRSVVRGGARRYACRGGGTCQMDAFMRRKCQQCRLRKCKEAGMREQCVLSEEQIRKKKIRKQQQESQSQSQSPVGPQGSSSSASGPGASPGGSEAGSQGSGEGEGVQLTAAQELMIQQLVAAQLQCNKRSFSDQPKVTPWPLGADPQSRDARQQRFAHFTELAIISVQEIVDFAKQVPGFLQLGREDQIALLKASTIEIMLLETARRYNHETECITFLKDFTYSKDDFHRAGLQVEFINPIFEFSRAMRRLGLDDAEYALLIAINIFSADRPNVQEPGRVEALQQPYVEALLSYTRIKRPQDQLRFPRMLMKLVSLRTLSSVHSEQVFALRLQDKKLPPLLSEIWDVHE
In series [22] the test system is Mus musculus. Put plainly: Anti-atherosclerotic activity in high fat diet-induced C57BL/6 mouse model of hypercholesterolemia assessed as reduction in liver weight at 10 to 40 mg/kg, po administered for 12 weeks by H and E staining-based assay. The class given is functional, organism-based.

Molecules are shown by their SMILES. Active and inactive are the calls of the source. The calls are words filed in the database; no cut-off is given here.

Consider one compound from ChEMBL document CHEMBL4359918, “Discovery of tissue selective liver X receptor agonists for the treatment of atherosclerosis without causing hepatic lipogenesis” (Eur J Med Chem, 2019).

As for `CC(C)C(=O)CC[C@@H](C)[C@H]1CC[C@H]2[C@@H]3C[C@H](O)[C@H]4C[C@H](O)CC[C@]4(C)[C@H]3CC[C@]12C`, the outcome in the series on Mus musculus [1], in the series on Mus musculus [2], in the series on RAW264.7 [4], in the series on Mus musculus [9], in the series on Mus musculus [12] and in the series with Mus musculus [14] was Active. The outcome (with Mus musculus [16]; with Mus musculus [20]; in [21]; in the series with Mus musculus [22]) was Active. Moreover, the Activity result with HEK-293T is “Non-Toxic”; in the series on RAW264.7 [3] it was “Non-Toxic”; with RAW264.7 [5] it was “Non-Toxic”; in the series with PBMC, “Non-Toxic”; in series [6], “Active”; in the series with HepG2 [7], “Non-Toxic”. Besides, the figures for the Activity result in the series with Mus musculus [10], with Mus musculus [13] and with HepG2 [15] were “Non-Toxic”, “Dose-dependent effect” and “Non-Toxic”, respectively. In the series on RAW264.7 [8], the inhibition entry is “Active”. Further, the outcome (in series [11]; in the series on 3T3-L1 [17]; in the series on 3T3-L1 [19]) was inactive. Also, the fold change (FC) in [18] worked out at 4.27.
